# Assay results taken from patent US20020076736A1, “Methods of affecting laminin 5 processing” (priority 2000, published 2002).
# “Also recorded” adds a separate entry of the source.
# T1: MMP-2 (Homo sapiens, UniProt P08253)
# T1 sequence (P08253 110-660): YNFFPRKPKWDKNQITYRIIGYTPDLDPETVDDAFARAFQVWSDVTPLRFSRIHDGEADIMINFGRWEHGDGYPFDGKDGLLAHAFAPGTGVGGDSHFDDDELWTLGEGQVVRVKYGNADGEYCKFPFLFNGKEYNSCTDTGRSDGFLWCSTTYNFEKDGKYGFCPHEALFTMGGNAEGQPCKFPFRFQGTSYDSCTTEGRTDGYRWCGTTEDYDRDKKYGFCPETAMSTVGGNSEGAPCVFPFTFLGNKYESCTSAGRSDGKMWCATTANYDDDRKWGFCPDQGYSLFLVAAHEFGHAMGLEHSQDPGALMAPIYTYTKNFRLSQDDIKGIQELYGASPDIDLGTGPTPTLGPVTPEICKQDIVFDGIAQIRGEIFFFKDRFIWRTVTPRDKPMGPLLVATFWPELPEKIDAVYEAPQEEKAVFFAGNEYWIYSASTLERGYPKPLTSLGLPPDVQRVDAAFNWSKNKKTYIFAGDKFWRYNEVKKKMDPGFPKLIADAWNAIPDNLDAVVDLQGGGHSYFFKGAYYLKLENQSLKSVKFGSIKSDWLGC
# T2: BMP-1 (Homo sapiens, UniProt P13497)
# T2 sequence (P13497 121-730 isoform P13497-2 limits assumed): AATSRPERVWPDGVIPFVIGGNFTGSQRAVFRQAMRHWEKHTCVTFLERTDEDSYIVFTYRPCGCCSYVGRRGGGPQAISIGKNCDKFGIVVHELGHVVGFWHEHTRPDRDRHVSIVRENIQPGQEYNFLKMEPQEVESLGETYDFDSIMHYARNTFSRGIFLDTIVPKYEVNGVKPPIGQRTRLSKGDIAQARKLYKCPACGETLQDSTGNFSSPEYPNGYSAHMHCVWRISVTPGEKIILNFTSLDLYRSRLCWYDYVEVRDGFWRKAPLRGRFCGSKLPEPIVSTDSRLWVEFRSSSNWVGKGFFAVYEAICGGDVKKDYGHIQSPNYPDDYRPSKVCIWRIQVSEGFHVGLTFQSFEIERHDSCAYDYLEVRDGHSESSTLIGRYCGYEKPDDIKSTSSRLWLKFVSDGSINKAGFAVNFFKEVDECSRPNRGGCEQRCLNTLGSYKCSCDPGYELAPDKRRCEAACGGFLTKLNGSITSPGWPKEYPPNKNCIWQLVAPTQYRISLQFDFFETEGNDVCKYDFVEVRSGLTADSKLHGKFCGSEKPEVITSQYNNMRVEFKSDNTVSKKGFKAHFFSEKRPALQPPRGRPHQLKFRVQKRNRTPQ
# T3: MMP-1 (Homo sapiens, UniProt P03956)
# T3 sequence (P03956 100-469): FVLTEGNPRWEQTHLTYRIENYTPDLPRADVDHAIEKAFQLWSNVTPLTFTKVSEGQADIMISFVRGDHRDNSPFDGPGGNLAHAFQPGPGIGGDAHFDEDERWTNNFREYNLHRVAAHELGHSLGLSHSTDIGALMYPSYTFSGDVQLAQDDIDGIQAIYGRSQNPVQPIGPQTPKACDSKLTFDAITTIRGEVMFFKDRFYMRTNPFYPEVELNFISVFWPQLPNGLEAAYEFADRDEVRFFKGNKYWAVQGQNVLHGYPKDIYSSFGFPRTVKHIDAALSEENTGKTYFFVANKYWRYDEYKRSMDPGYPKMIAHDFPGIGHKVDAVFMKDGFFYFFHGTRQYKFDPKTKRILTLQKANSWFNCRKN
# Assays:
# [1] = target: unprocessed human laminin 5 (α3 chain of 200 kDa, β3 chain of 140 kDa, γ2 chain of 155 kDa) (UniProt Q16787)
# cultured cells = assay: Toxicity to cultured cells; type: cell-based; conditions: for toxicity to cultured cells at 100 times inhibitory levels: 100 times the concentration which inhibited BMP-1 activity; for toxic effect on cells: cell culture
# MMP-9 = MMP-9 (Homo sapiens, UniProt P14780); assay: Inhibition of MMP-9 activity; type: biochemical
# MT1-MMP = MT1-MMP (Homo sapiens, UniProt P50281); assay: Inhibition of MT1-MMP activity; type: biochemical
# squamous carcinoma cells = assay: Migration of squamous carcinoma cells (general statement); type: cell-based
# keratinocytes = assay: Keratinocyte migration, Boyden chambers; type: cell-based; conditions: for inhibition of keratinocyte migration, dose dependence: Boyden chamber and scratch assays
# Protocol: Compounds 1 and 2 were used to examine the functional effects of processing by BMP-1 related proteins on keratinocyte migration. […] Keratinocytes were analyzed for migration in Boyden chambers in the presence of increasing amounts of the inhibitors. […] (Koivunen et al. (1999) Nature Biotechnology 17:768-774.)
# MMP-2 = target: T1, MMP-2; assay: Inhibition of MMP-2 activity; type: biochemical
# BMP-1 = target: T2, BMP-1; assay: Inhibition of BMP-1 activity, enzyme-based assays of collagen proteolysis; type: biochemical
# MMP-1 = target: T3, MMP-1; assay: Inhibition of MMP-1 activity; type: biochemical
# [2] = target: unprocessed human laminin 5 (α3 chain of 200 kDa, β3 chain of 140 kDa, γ2 chain of 155 kDa), Q16787
# Chain of unprocessed human laminin 5 (α3 chain of 200 kDa, β3 chain of 140 kDa, γ2 chain of 155 kDa), Q16787 (Q16787 whole entry, looked up): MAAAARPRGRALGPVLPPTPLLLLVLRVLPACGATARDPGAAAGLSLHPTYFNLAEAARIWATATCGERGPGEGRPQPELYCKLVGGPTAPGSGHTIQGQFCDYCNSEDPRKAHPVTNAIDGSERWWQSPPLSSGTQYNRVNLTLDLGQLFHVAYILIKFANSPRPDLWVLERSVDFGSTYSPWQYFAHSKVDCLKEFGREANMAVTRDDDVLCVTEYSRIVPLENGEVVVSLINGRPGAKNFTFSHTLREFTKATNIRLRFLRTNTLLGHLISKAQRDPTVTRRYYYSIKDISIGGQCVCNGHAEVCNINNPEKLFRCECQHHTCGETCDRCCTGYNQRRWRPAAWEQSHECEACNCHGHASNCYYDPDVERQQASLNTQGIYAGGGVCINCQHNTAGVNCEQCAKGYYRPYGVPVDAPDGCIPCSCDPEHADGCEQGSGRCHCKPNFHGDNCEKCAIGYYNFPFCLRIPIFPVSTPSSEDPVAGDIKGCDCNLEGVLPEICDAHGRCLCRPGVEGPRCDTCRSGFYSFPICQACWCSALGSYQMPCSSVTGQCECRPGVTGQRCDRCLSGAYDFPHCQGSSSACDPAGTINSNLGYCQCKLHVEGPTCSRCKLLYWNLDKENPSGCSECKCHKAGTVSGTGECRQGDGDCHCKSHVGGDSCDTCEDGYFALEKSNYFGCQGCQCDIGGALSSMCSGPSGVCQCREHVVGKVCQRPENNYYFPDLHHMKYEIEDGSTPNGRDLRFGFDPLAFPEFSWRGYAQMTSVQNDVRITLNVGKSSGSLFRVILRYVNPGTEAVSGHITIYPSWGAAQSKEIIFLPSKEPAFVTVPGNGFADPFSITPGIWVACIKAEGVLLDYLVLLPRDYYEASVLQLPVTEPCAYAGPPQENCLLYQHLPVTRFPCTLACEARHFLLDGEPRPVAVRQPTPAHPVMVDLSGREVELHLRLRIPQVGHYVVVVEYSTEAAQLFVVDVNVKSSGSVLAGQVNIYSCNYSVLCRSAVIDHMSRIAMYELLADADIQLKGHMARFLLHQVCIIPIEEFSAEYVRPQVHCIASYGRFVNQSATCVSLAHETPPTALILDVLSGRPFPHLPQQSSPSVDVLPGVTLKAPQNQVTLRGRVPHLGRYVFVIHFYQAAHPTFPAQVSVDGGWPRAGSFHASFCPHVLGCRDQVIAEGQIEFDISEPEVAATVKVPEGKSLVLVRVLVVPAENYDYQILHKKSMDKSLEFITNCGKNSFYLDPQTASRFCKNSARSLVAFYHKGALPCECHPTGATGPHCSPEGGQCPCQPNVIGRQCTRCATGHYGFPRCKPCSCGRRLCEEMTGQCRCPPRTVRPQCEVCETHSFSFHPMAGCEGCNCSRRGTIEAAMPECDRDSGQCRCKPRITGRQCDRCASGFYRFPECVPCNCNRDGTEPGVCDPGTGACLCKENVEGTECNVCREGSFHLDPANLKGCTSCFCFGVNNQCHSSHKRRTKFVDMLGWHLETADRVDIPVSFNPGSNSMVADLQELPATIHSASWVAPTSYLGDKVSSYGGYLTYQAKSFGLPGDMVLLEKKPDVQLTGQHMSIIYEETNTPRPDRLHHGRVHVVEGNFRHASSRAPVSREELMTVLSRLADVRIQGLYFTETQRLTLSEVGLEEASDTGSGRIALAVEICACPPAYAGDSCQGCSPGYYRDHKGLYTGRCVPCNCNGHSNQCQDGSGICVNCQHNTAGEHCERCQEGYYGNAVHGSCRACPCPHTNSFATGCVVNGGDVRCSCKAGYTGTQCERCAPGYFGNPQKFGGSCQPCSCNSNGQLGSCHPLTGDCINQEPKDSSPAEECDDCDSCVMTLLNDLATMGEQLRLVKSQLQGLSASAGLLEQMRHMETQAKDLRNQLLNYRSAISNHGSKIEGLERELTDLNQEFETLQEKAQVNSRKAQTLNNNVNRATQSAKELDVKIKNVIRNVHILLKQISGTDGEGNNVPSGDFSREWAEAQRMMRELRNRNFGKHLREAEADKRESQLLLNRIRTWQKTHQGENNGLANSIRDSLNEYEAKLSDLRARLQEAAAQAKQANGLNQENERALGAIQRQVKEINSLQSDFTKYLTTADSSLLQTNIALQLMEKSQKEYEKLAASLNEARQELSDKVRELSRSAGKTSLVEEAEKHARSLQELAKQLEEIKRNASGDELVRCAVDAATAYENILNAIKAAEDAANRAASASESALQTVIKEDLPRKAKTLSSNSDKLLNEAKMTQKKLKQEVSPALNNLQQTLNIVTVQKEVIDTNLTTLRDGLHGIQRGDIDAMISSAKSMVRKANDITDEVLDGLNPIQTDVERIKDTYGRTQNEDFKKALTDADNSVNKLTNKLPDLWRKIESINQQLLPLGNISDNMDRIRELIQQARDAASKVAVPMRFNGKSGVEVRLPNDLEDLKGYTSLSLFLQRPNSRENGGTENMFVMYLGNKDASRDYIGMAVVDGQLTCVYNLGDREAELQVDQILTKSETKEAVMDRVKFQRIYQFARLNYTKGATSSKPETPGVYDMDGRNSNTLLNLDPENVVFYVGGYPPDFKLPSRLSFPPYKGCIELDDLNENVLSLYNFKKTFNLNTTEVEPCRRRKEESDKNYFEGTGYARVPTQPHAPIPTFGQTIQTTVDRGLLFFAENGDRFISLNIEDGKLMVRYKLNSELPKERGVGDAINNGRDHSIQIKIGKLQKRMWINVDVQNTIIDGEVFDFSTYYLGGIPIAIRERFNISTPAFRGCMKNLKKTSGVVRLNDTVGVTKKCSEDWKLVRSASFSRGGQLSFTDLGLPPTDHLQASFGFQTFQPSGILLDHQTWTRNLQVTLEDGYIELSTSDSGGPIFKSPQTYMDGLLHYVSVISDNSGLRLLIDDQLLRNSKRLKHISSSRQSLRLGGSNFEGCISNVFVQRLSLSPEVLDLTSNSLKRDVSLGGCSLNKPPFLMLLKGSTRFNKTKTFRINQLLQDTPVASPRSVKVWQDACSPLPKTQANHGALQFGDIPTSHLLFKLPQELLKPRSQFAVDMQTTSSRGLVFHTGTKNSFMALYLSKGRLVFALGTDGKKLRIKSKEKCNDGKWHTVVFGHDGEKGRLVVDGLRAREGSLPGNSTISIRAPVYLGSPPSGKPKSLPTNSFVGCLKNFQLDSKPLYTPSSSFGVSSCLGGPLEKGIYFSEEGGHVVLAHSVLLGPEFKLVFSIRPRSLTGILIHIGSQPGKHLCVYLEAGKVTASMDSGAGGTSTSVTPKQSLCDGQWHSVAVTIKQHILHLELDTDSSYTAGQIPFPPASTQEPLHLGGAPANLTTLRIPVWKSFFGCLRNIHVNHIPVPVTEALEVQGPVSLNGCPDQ
# Chain of unprocessed human laminin 5 (α3 chain of 200 kDa, β3 chain of 140 kDa, γ2 chain of 155 kDa) (Q16787 whole entry, looked up): as above
# Chain of MMP-9 (P14780 94-707, species assumed): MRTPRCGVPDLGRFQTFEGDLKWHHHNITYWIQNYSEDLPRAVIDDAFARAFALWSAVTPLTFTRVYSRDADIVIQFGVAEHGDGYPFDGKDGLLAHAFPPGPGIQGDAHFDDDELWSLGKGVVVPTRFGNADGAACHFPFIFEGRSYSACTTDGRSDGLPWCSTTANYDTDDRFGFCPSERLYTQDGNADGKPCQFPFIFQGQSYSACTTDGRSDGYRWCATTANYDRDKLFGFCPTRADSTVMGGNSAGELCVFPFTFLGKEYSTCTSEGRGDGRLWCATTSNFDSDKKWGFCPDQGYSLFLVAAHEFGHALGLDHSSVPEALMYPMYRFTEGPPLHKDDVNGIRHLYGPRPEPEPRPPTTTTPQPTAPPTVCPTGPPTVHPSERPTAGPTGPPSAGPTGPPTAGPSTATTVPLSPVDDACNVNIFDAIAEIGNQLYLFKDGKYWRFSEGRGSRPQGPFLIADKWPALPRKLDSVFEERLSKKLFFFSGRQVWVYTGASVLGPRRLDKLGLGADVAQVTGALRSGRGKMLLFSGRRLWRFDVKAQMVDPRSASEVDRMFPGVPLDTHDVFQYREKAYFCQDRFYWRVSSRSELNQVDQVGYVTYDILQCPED
molecule,measurement,setting,value
human mammalian tolloid (mTld),"cleavage of the α3 chain of laminin 5 (matrix digestion, western blot)",[1],"BMP-1, mTld, mTll-1, and mTLL-2 all cleaved the α3 chain of laminin 5"
MMP-2,cleavage of human laminin 5,[1],"it failed to cleave human laminin 5, even at six times the enzyme-to-substrate ratio used for BMP-1 cleavage studies"
same,"digestion of laminin 5 (100 ng/ml MMP-2, 37° C., 16 hours, western blot)",[1],no digestion of laminin 5 was seen with 100 ng/ml MMP-2 (over three times the amount of BMP-1 on a molar basis)
same,processing of collagen XVII,collagen XVII,it readily processed collagen XVII and collagen IV
same,"digestion of type IV collagen (positive control, data not shown)",type IV collagen,MMP-2 completely digested an equimolar quantity of type IV collagen under the same conditions
same,processing of collagen IV,type IV collagen,it readily processed collagen XVII and collagen IV
COc1ccc(CCN(CCC(=O)NO)S(=O)(=O)c2ccc(C(N)=NO)cc2)cc1 [Compound 3],toxicity to cultured cells at 100 times inhibitory levels,cultured cells,nontoxic
same,toxic effect on cells,cultured cells,low cytotoxicity; also recorded: no toxic effect on cells
same,inhibition of activity of MMP-9,MMP-9,no inhibition
same,inhibition of activity of MT1-MMP,MT1-MMP,no inhibition
same,inhibition of migration of squamous carcinoma cells,squamous carcinoma cells,potently inhibit
same,inhibition of keratinocyte migration,keratinocytes,potently inhibit
same,"inhibition of keratinocyte migration, dose dependence",keratinocytes,inhibition of KC migration in a dose-dependent manner
same,inhibition of activity of MMP-2,MMP-2,no inhibition
same,inhibition of BMP-1 activity,BMP-1,showed inhibition of BMP-1 activity
same,potency of BMP-1 inhibition relative to the other compounds,BMP-1,slightly less potent
same,inhibition of activity of MMP-1,MMP-1,no inhibition
O=C(CCCC1C(=O)N(C23CC4CC(CC(C4)C2)C3)C(=O)N1Cc1ccccn1)NO (stereo not drawn) [Compound 1],toxicity to cultured cells at 100 times inhibitory levels,cultured cells,nontoxic
same,toxic effect on cells,cultured cells,nontoxic; also recorded: no toxic effect on cells
same,inhibition of activity of MMP-9,MMP-9,no inhibition
same,inhibition of activity of MT1-MMP,MT1-MMP,no inhibition
same,inhibition of migration of squamous carcinoma cells,squamous carcinoma cells,potently inhibit
same,inhibition of keratinocyte migration,keratinocytes,potently inhibit
same,"inhibition of keratinocyte migration, dose dependence",keratinocytes,inhibition of KC migration in a dose-dependent manner
same,dose required to achieve nearly complete inhibition of migration,keratinocytes; Boyden chambers,23 µM
same,"inhibition of migration of keratinocytes, dose dependence","keratinocytes; Boyden chambers, 0, 10, 23 μM",dose dependent
same,inhibition of activity of MMP-2,MMP-2,no inhibition
same,inhibition of BMP-1 activity,BMP-1,showed inhibition of BMP-1 activity
same,inhibition of activity of MMP-1,MMP-1,no inhibition
human BMP-1 (bone morphogenetic protein-1) (protein) AATSRPERVWPDGVIPFVIGGNFTGSQRAVFRQAMRHWEKHTCVTFLERTDEDSYIVFTYRPCGCCSYVGRRGGGPQAISIGKNCDKFGIVVHELGHVVGFWHEHTRPDRDRHVSIVRENIQPGQEYNFLKMEPQEVESLGETYDFDSIMHYARNTFSRGIFLDTIVPKYEVNGVKPPIGQRTRLSKGDIAQARKLYKCPACGETLQDSTGNFSSPEYPNGYSAHMHCVWRISVTPGEKIILNFTSLDLYRSRLCWYDYVEVRDGFWRKAPLRGRFCGSKLPEPIVSTDSRLWVEFRSSSNWVGKGFFAVYEAICGGDVKKDYGHIQSPNYPDDYRPSKVCIWRIQVSEGFHVGLTFQSFEIERHDSCAYDYLEVRDGHSESSTLIGRYCGYEKPDDIKSTSSRLWLKFVSDGSINKAGFAVNFFKEVDECSRPNRGGCEQRCLNTLGSYKCSCDPGYELAPDKRRCEAACGGFLTKLNGSITSPGWPKEYPPNKNCIWQLVAPTQYRISLQFDFFETEGNDVCKYDFVEVRSGLTADSKLHGKFCGSEKPEVITSQYNNMRVEFKSDNTVSKKGFKAHFFSEKRPALQPPRGRPHQLKFRVQKRNRTPQ,"cleavage of the α3 chain of laminin 5 (matrix digestion, western blot)",[2],"BMP-1, mTld, mTll-1, and mTLL-2 all cleaved the α3 chain of laminin 5"
same,"cleavage of the γ2 chain of laminin 5 (matrix digestion, western blot)",[2],BMP-1 and mTLL-2 cleaved the γ2 chain of laminin 5
same,"processing of the laminin 5 α3 chain (about 1 µg laminin 5 with 30 ng/ml BMP-1, 16 hours at 37° C., western blot)",[2],laminin α3 chain was completely processed from 200 kDa to 165 kDa by BMP-1
human mammalian tolloid-like-1 (mTll-1) (protein) AATSRTERIWPGGVIPYVIGGNFTGSQRAMFKQAMRHWEKHTCVTFIERSDEESYIVFTYRPCGCCSYVGRRGNGPQAISIGKNCDKFGIVVHELGHVIGFWHEHTRPDRDNHVTIIRENIQPGQEYNFLKMEPGEVNSLGERYDFDSIMHYARNTFSRGMFLDTILPSRDDNGIRPAIGQRTRLSKGDIAQARKLYRCPACGETLQESNGNLSSPGFPNGYPSYTHCIWRVSVTPGEKIVLNFTTMDLYKSSLCWYDYIEVRDGYWRKSPLLGRFCGDKLPEVLTSTDSRMWIEFRSSSNWVGKGFAAVYEAICGGEIRKNEGQIQSPNYPDDYRPMKECVWKITVSESYHVGLTFQSFEIERHDNCAYDYLEVRDGTSENSPLIGRFCGYDKPEDIRSTSNTLWMKFVSDGTVNKAGFAANFFKEEDECAKPDRGGCEQRCLNTLGSYQCACEPGYELGPDRRSCEAACGGLLTKLNGTITTPGWPKEYPPNKNCVWQVVAPTQYRISVKFEFFELEGNEVCKYDYVEIWSGLSSESKLHGKFCGAEVPEVITSQFNNMRIEFKSDNTVSKKGFKAHFFSDKDECSKDNGGCQHECVNTMGSYMCQCRNGFVLHDNKHDCKEAECEQKIHSPSGLITSPNWPDKYPSRKECTWEISATPGHRIKLAFSEFEIEQHQECAYDHLEVFDGETEKSPILGRLCGNKIPDPLVATGNKMFVRFVSDASVQRKGFQATHSTECGGRLKAESKPRDLYSHAQFGDNNYPGQVDCEWLLVSERGSRLELSFQTFEVEEEADCGYDYVELFDGLDSTAVGLGRFCGSGPPEEIYSIGDSVLIHFHTDDTINKKGFHIRYKSIRYPDTTHTKK,"cleavage of the α3 chain of laminin 5 (matrix digestion, western blot)",[2],"BMP-1, mTld, mTll-1, and mTLL-2 all cleaved the α3 chain of laminin 5"
human mammalian tolloid-like-2 (mTll-2) (protein) ATTSRTERIWPGGVIPYVIGGNFTGSQRAIFKQAMRHWEKHTCVTFIERTDEESFIVFSYRTCGCCSYVGRRGGGPQAISIGKNCDKFGIVAHELGHVVGFWHEHTRPDRDQHVTIIRENIQPGQEYNFLKMEAGEVSSLGETYDFDSIMHYARNTFSRGVFLDTILPRQDDNGVRPTIGQRVRLSQGDIAQARKLYKCPACGETLQDTTGNFSAPGFPNGYPSYSHCVWRISVTPGEKIVLNFTSMDLFKSRLCWYDYVEVRDGYWRKAPLLGRFCGDKIPEPLVSTDSRLWVEFRSSSNILGKGFFAAYEATCGGDMNKDAGQIQSPNYPDDYRPSKECVWRITVSEGFHVGLTFQAFEIERHDSCAYDYLEVRDGPTEESALIGHFCGYEKPEDVKSSSNRLWMKFVSDGSINKAGFAANFFKEVDECSWPDHGGCEHRCVNTLGSYKCACDPGYELAADKKMCEVACGGFITKLNGTITSPGWPKEYPTNKNCVWQVVAPAQYRISLQFEVFELEGNDVCKYDFVEVRSGLSPDAKLHGRFCGSETPEVITSQSNNMRVEFKSDNTVSKRGFRAHFFSDKDECAKDNGGCQHECVNTFGSYLCRCRNGYWLHENGHDCKEAGCAHKISSVEGTLASPNWPDKYPSRRECTWNISSTAGHRVKLTFNEFEIEQHQECAYDHLEMYDGPDSLAPILGRFCGSKKPDPTVASGSSMFLRFYSDASVQRKGFQAVHSTECGGRLKAEVQTKELYSHAQFGDNNYPSEARCDWVIVAEDGYGVELTFRTFEVEEEADCGYDYMEAYDGYDSSAPRLGRFCGSGPLEEIYSAGDSLMIRFRTDDTINKKGFHARYTSTKFQDALHMKK,"cleavage activity toward the α3 chain and γ2 chain of laminin 5, compared with the other BMP-1 related proteins",[2],mTll-2 showed more potent cleavage activity toward the α3 chain and γ2 chain of laminin 5 compared to the other BMP-1 related proteins
same,"cleavage of the α3 chain of laminin 5 (matrix digestion, western blot)",[2],"BMP-1, mTld, mTll-1, and mTLL-2 all cleaved the α3 chain of laminin 5"
same,"cleavage of the γ2 chain of laminin 5 (matrix digestion, western blot)",[2],BMP-1 and mTLL-2 cleaved the γ2 chain of laminin 5
